Earlier results on 20 compounds are cited in article PMC7315836 (Journal of medicinal chemistry, 2020).

Where two headings read alike, the source gives them in different places.

For data set [1], the system named is SARS-CoV.
The test system of data set [2] is ADAM17.
For data set [3], the system named is cathepsin L. The settings on record: cathepsin L inhibition assay.
In data set [4] the test system is human aortic endothelial cells. To be noted: 100 μM.
Data set [5] deals with coronaviruses.
Data set [6] has as its system HCoV-NL63. To be noted: HCoV-NL63 pseudovirus.
The test system of data set [7] is SARS-CoV-2. To be noted: SARS-CoV-2 pseudovirus assay.
Data set [8] relates to SARS-CoV-2 S-mediated membrane fusion. The settings on record: fusion inhibitory assay.
Assay in data set [9]: not given
This is another data set of the same source.

In data set [10] the test system is HCoV-229E. To be noted: HCoV-229E pseudovirus.
For data set [11], the system named is HCoV-OC43. The settings on record: 5 mg/kg.
The test system of data set [12] is MERS-CoV. The settings on record: mouse, in vivo.
Data set [13] concerns HCoV-OC43. To be noted: HCoV-OC43 pseudovirus.
For data set [14], the system named is SARS-CoV. The source holds these as a separate data set.
The test system of data set [15] is MERS-CoV.
The test system of data set [16] is furin. To be noted: HEK293 cells.
In data set [17] the test system is HCoV-229E.
Data set [18] relates to SARS-CoV. The source holds these as a separate data set.
In data set [19] the test system is MERS-CoV. This is another data set of the same source.
The conditions of data set [20]: acute toxicity, mice.
The subject of data set [21] is ACE2. To be noted: read-out: IC50, ACE2 catalytic activity.
Data set [22] has as its system TMPRSS2. The settings on record: by inhibiting TMPRSS2 activity.
Data set [23] concerns SARS-CoV-2.
Data set [24] relates to MERS-CoV. The source holds these as a separate data set.
Data set [25] concerns the target TACE (TNF-α converting enzyme). The settings on record: read-out: IC50, ACE2 shedding.
Data set [26] has as its target ACE2.
For data set [27], the system named is ACE.
In data set [28] the test system is ACE2. This is another data set of the same source.
In data set [29] the test system is SARS-CoV-2 pseudoviruses.

Consider MDL28170 [MDL28170 (17)], for which the EC50 (commonly the midpoint of the concentration-response curve) in [1] was roughly 0.1 µM.

With `CCC[C@@H]([C@@H](CC(C)C)C(=O)N[C@@H](CCCCNC(=O)OCc1ccccc1)C(=O)Nc1nccs1)N(O)C=O` [GW280264X (6), GW280264X], the “concentration reducing shedding of ACE2” value in data set [2] is recorded as 1 nM.

For the compound `CCc1ccccc1NC(=O)CSC(=O)NNC(=O)[C@H](Cc1c[nH]c2ccccc12)NC(=O)OC(C)(C)C` [CID 16725315 (18), CID 16725315], in data set [3], the IC50 (commonly the point on the concentration scale where inhibition reaches its midpoint) was 0.056 µM.

Consider `CC(C)(C)OC(=O)N[C@@H](Cc1c[nH]c2ccccc12)C(=O)NNC(=O)OCC(=O)N1CCCc2ccccc21` [CID23631927 (19), CID 23631927], for which the IC50 in [3] was 0.0069 µM. The toxicity result in [4] is given as “did not show any sign of toxicity”.

As for `CN1CCN(C(=O)N[C@@H](Cc2ccccc2)C(=O)N[C@H](/C=C/S(=O)(=O)c2ccccc2)CCc2ccccc2)CC1` [K11777 (21), K11777], the IC50 in data set [5] was 0.00068 to 0.0461 µM.

Regarding `CCN(CCO)CCCC(C)Nc1ccnc2cc(Cl)ccc12` (stereo not shown) [Hydroxychloroquine (5), Hydroxychloroquine], the “toxicity that could be caused” value was “ventricular arrhythmias,[72] QT prolongation,[72],[73] retinopathy,[74] and other cardiac-related toxicity”.

Turning to EK1, the IC50 in data set [6] was 6.02 µM; in [7], 2.38 µM; in data set [8], 0.19 µM; in data set [10], 3.35 µM; in data set [13], 1.81 µM. In data set [9], the “cytotoxic concentration (not cytotoxic up to)” value is on record as greater than 1 mM. For the same compound, the “protection of mice from HCoV-OC43” value in data set [11] is “nearly completely protected”. The “protection of mice against MERS-CoV infection” value in [12] is “nearly completely protected”.

For `CCN(CC)CCCC(C)Nc1ccnc2cc(Cl)ccc12` (stereo not shown) [Chloroquine (4), Chloroquine], the “toxicity that could be caused” value is “ventricular arrhythmias,[72] QT prolongation,[72],[73] retinopathy,[74] and other cardiac-related toxicity”. Further, in data set [5], the IC50 is 1.13 to 4.4 µM. Also, the ED50 in data set [14] is 4.4 µM.

Take `CN1CCN(CCOc2cc(OC3CCOCC3)c3c(Nc4c(Cl)ccc5c4OCO5)ncnc3c2)CC1` [saracatinib (30), saracatinib]: the IC50 in [5] was 2.4 to 5.1 µM; in [15], 2.9 µM.

`CC(C)(C)[C@H](NC(=O)[C@H](CCONC(=N)N)NC(=O)Cc1ccc(CNC(=N)N)cc1)C(=O)N[C@@H](CCONC(=N)N)C(=O)NCc1ccc(C(=N)N)cc1` [MI-1851 (24), MI-1851]: the “proteolytic processing of SARS-CoV-2 S protein by endogenous furin” value in data set [16] was “could prevent proteolytic processing of the S protein”.

Consider `O=C(NC(Cc1ccccc1)C(=O)N1CCC(O)(c2ccc(Br)cc2)CC1)c1ccccc1` (stereo not shown) [K22 (2), K22], for which the IC50 in data set [17] was 0.7 µM.

`COc1ccc(S(=O)(=O)O)cc1/N=N/c1c(S(=O)(=O)O)cc2cc(Nc3nc(Nc4ccccc4)nc(Nc4cc(C)c(/N=N/c5cc(S(=O)(=O)O)cc6cc(S(=O)(=O)O)cc(O)c56)cc4OC)n3)ccc2c1O` [ADS-J1 (15), ADS-J1]: the IC50 was 0.6 to 3.89 µM in data set [5], 3.89 µM in [18] and 0.6 µM in data set [19].

Consider `O=c1cc(-c2ccc(O)c(O)c2)oc2cc(O)cc(O)c12` [luteolin (13), luteolin], for which the 50% lethal dose in [20] was 232.2 mg/kg.

With `NCCNCCN1CC1` [NAAE (3), N-(2-amino-ethyl)-1 aziridine-ethanamine], in data set [21], the IC50 was 57 µM.

For `CN(C)C(=O)COC(=O)Cc1ccc(OC(=O)c2ccc(NC(=N)N)cc2)cc1` [Camostat (22), Camostat], the “concentration preventing SARS-CoV infections” value in data set [22] was 10 µM. In addition, the “viral entry of SARS-CoV-2” value in [23] was “could prevent the viral entry of SARS-CoV-2”.

Turning to `Cc1nc(Nc2ncc(C(=O)Nc3c(C)cccc3Cl)s2)cc(N2CCN(CCO)CC2)n1` [dasatinib (29), dasatinib], the results for the IC50 in data set [5] and in data set [24] were 2.1 to 5.4 µM and 5.4 µM, respectively.

As for `O=C(OC[C@H]1O[C@@H](OC(=O)c2cc(O)c(O)c(O)c2)[C@H](OC(=O)c2cc(O)c(O)c(O)c2)[C@H](OC(=O)c2cc(O)c(O)c(O)c2)[C@@H]1O)c1cc(O)c(O)c(O)c1` [TGG (12), TGG], the 50% lethal dose in data set [20] is given as ~ 456 mg/kg.

Regarding `CC(C)CC(CC(=O)NO)C(=O)NC(Cc1ccc2ccccc2c1)C(=O)NC(C)C(N)=O` (stereo not shown) [TAPI-0 (7), TAPI-0], in data set [25], the IC50 is 0.1 µM.

Consider DX600, for which the Ki (commonly a dissociation constant, usually derived from enzyme kinetics or from competition with a known ligand) in data set [26] is 0.0028 µM. Besides, the “inhibition of ACE activity” value in data set [27] was “did not inhibit ACE activity”. Also, the stability entry in data set [28] is “chemically stable and not hydrolyzable by ACE2”.

Regarding Teicoplanin, the IC50 in data set [29] is 1.66 µM.
